US6440459B1, “Paroxetine maleate polymorph and pharmaceutical compositions containing it” (Medichem, S.A., priority 1998, dated 2002)

Test: Accelerated stability tests (storage at 40° C. and 75% Relative Humidity, HPLC analysis)
Type: physicochemical
Conditions: for Degradation in accelerated stability tests: high temperature and humidity conditions, periods of up to six months (summary statement); for Stability (degradation by HPLC) at the end of one month of storage / Stability (degradation by HPLC) at the end of six months of storage: solid in two-ply polythene bags, 40° C., 75% Relative Humidity, HPLC vs time of packaging
Procedure: Accelerated Stability Tests Samples of paroxetine maleate Form A and Form B were packaged in two-ply polythene bags and stored at 40° C. and 75% Relative Humidity. The samples were analyzed at the time of packaging by HPLC and were analyzed with the same technique at the end of one month and six months of storage.

Degradation in accelerated stability tests	Stability (degradation by HPLC) at the end of one month of storage	Stability (degradation by HPLC) at the end of six months of storage	Compound
notable degradation	clear signs of degradation	high degree of degradation	Fc1ccc([C@@H]2CCNC[C@H]2COc2ccc3c(c2)OCO3)cc1.O=C(O)/C=C\C(=O)O [Form A, (3S-trans)-3-[(1,3-benzodioxol-5-yloxy)methyl]-4-(4-fluorophenyl)piperidine acid maleate]
absence of significant degradation	substantially unaltered	substantially unaltered	Fc1ccc([C@@H]2CCNC[C@H]2COc2ccc3c(c2)OCO3)cc1.O=C(O)/C=C\C(=O)O [Form B, (3S-trans)-3-[(1,3-benzodioxol-5-yloxy)methyl]-4-(4-fluorophenyl)piperidine acid maleate]
